Columns and labels:
[1] = molecular target: T1, human blood platelet PDE5 (Homo sapiens, UniProt O76074); assay: PDE5 enzyme inhibition activity test (scintillation proximity); assay type: biochemical
T1 construct: obtained by suitably treating various tissues and separating the enzyme with FPLC; from tissue; host or cells: human blood platelets
Protocol: (§1) More specifically, PDE5 and PDE3 were obtained from human blood platelet, and PDE6 was separated from bovine retina. Upon enzyme was separated out, the enzyme inhibition activity test would be carried out immediately. The said enzyme inhibition activity test was performed by directly detecting the scintillation proximity of AMP/GMP using TRKQ7100 and TRKQ7090 kits, which was generally as follows. In the presence of different concentrations of inhibitor and a small amount of substrate, 10 μl of buffer (50 mM Tris/HCl PH 7.5, 8.3 mM MgCl2, 1.7 mM EGTA) was added, and then water was added to a final volume of 100 μl. The reaction was initiated with a fixed amount of enzyme, incubated at 30° C. for 30 min, and then quenched with 50 μl of yttrium silicate beads comprising zinc sulphate. After shaken for 20 min, the reaction mixture was put in dark and settled for 30 min, and then readed on a BECKMAN LS6500 MULTI-PURPOSE SCINTILLATION COUNTER.

PDE6 in bovine retina = molecular target: T2, PDE6 in bovine retina (Bos taurus, UniProt P11541+P23439); assay: PDE6 enzyme inhibition activity test (scintillation proximity); assay type: biochemical; conditions: for IC50: PDE6 separated from bovine retina, read-out: PDE6 IC50; for PDE6 IC50/PDE5 IC50: selectivity, ratio of IC50 PDE6/IC50 PDE5
T2 construct: obtained by suitably treating various tissues and separating the enzyme with FPLC; from tissue; host or cells: bovine retina
T2 sequence (P11541 2-856 limits assumed): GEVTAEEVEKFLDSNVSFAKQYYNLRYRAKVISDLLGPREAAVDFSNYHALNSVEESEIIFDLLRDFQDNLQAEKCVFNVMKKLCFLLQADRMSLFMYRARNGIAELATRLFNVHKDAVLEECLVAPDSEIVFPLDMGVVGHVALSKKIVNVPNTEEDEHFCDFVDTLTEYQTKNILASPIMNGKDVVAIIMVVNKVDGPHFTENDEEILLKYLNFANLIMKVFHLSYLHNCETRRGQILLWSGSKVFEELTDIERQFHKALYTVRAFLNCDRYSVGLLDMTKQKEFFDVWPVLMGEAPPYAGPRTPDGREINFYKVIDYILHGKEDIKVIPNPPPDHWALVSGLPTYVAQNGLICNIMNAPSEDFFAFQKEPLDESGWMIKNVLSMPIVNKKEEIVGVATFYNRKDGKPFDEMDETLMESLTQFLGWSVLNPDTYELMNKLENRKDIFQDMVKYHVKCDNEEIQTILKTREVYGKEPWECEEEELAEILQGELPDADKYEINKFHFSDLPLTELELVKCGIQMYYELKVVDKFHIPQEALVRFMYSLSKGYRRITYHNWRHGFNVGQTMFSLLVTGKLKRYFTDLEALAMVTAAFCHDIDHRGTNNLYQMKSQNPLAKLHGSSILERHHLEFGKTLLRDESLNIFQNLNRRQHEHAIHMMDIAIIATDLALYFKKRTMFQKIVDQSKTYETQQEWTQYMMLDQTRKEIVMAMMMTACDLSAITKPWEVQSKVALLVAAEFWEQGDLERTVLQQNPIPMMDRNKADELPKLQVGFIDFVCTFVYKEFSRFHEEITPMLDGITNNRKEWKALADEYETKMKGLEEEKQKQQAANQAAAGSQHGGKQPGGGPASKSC
T2 sequence (P23439 2-850 limits assumed): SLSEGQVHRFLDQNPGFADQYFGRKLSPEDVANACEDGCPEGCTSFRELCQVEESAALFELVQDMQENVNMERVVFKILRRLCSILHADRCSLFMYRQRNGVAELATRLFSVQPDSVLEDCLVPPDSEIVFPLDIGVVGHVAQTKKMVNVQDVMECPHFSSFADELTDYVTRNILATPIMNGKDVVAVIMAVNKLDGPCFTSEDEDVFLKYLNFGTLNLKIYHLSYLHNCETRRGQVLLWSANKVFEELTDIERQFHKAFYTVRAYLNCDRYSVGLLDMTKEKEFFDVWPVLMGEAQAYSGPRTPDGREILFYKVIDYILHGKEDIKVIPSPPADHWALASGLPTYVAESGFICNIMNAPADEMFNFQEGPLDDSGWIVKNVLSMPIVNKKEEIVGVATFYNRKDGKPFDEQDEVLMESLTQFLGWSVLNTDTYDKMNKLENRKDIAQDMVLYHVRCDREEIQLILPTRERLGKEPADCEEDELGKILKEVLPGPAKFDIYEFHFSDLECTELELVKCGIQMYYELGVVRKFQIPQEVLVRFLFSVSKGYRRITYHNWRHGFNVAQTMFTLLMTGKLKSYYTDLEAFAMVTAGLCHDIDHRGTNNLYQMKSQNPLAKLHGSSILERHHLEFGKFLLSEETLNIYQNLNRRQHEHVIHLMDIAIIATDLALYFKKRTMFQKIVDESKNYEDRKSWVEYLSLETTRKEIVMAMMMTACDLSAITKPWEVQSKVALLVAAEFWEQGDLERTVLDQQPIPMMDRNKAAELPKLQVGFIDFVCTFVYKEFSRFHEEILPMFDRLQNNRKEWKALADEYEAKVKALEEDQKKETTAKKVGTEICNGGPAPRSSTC
Protocol: as §1

| IC50 ([1]; PDE5 table) | IC50 ([1]; as repeated in the PDE6 table) | IC50 (PDE6 in bovine retina) | PDE6 IC50/PDE5 IC50 (PDE6 in bovine retina) | Compound |
| --- | --- | --- | --- | --- |
| 0.57 nM | 0.57 nM | 7.88 nM | 13.7 | CCCOc1ccc(C(=O)N2CCOCC2)cc1-c1nc(CC)c(CC)c(=O)[nH]1 [Example 59, (Morpholin-1-yl)(3-(4,5-diethyl-1,6-dihydro-6-oxopyrimidin-2-yl)-4-n-propoxy)benzophenone] |
| 2.04 nM | 2.04 nM | 8.19 nM | 4.0 | CCCOc1ccc(C(=O)N2CCCCC2)cc1-c1nc(CC)c(CC)c(=O)[nH]1 [Example 60, (piperid-1-yl)(3-(4,5-diethyl-1,6-dihydro-6-oxopyrimidin-2-yl)-4-n-propoxy)benzophenone] |
| 1.93 nM | 1.93 nM | 29.1 nM | 15.1 | CCCOc1ccc(C(=O)N2CCCC2C(N)=O)cc1-c1nc(CC)c(CC)c(=O)[nH]1 (centres unmarked) [Example 61] |
| 1.24 nM | 1.24 nM | 33.4 nM | 26.9 | CCCOc1ccc(C(=O)N2CCOCC2)cc1-c1nc(C(C)C)c(Br)c(=O)[nH]1 [Example 63, (Morpholin-1-yl)(3-(4-isopropyl-5-bromo-1,6-dihydro-6-oxopyrimidin-2-yl)-4-n-propoxy)benzophenone] |
| 1.61 nM | 1.61 nM | 26.9 nM | 16.7 | CCCOc1ccc(NC(N)=O)cc1-c1nc(CC)c(CC)c(=O)[nH]1 [Example 67, 1-(3-(4,5-Diethyl-1,6-dihydro-6-oxopyrimidin-2-yl)-4-n-propoxyphenyl)urea] |
| 0.53 nM | 0.53 nM | 16.4 nM | 31.0 | CCCOc1ccc(NC(=O)NCC)cc1-c1nc(CC)c(CC)c(=O)[nH]1 [Example 68, 1-(3-(4,5-Diethyl-1,6-dihydro-6-oxopyrimidin-2-yl)-4-n-propoxyphenyl)-3-ethylurea] |
| 1.99 nM | 1.99 nM | 25.2 nM | 12.7 | CCCOc1ccc(C(=O)CN2CCOCC2)cc1-c1nc(CC)c(CC)c(=O)[nH]1 [Example 76, 5,6-diethyl-2-(5-(2-morpholinylacetyl)-2-n-propoxyphenyl)pyrimid-4(3H)-one] |
| 1.98 nM | 1.98 nM | 11.7 nM | 5.88 | CCCOc1ccc(C(=O)NCC(=O)OCC)cc1-c1nc(CC)c(CC)c(=O)[nH]1 [Example 89, Ethyl 2-(3-(4,5-diethyl-1,6-dihydro-6-oxopyrimidin-2-yl)-4-n-propoxybenzamido)acetate] |
| – | – | 22.2 nM | – | CCCOc1ccc(NC(=O)CN2CCN(C)CC2)cc1-c1nc(CC)c(CC)c(=O)[nH]1 [Example 179, N-(3-(4,5-diethyl-1,6-dihydro-6-oxopyrimidin-2-yl)-4-n-propoxyphenyl)-2-(4-methylpiperazin-1-yl)acetamide] |

The next lines start with the molecule.

| Compound | IC50 ([1]; PDE5 table) | IC50 ([1]; as repeated in the PDE6 table) | IC50 (PDE6 in bovine retina) | PDE6 IC50/PDE5 IC50 (PDE6 in bovine retina) |
| --- | --- | --- | --- | --- |
| CCCOc1ccc(S(=O)(=O)NCCN2CCOCC2)cc1-c1nc(CC)c(CC)c(=O)[nH]1 [Example 31, 5,6-diethyl-2-{2-n-propoxy-5-[N-(2-morpholinylethyl)aminosulfonyl)phenyl}pyrimid-4(3H)-one] | 1.36 nM | 1.36 nM | 52.8 nM | 38.8 |
| CCCOc1ccc(S(=O)(=O)N2CCCC2C(=O)O)cc1-c1nc(CC)c(CC)c(=O)[nH]1 (centres unmarked) [Example 32] | 2.02 nM | 2.02 nM | 40.6 nM | 20.1 |
| CCCOc1ccc(NC(=S)NCC)cc1-c1nc(CC)c(CC)c(=O)[nH]1 [Example 43, 1-(3-(4,5-Diethyl-1,6-dihydro-6-oxopyrimidin-2-yl)-4-n-propoxyphenyl)-3-ethylthiourea] | 3.72 nM | 3.72 nM | 42.8 nM | 11.5 |
| CCCOc1ccc(N/C(=N/CC)N(CC)CC)cc1-c1nc(CC)c(CC)c(=O)[nH]1 [Example 46, N-[3-(4,5-diethyl-1,6-dihydro-6-oxopyrimidin-2-yl)-4-n-propoxyphenyl]-N′,N″-triethylguanidine] | 1.09 nM | 1.09 nM | 642 nM | 589.0 |
| CCCOc1ccc(NC(=O)N2CCCC2)cc1-c1nc(CC)c(CC)c(=O)[nH]1 [Example 49] | 1.86 nM | 1.86 nM | 620 nM | 10.5 |
| CCCOc1ccc(NS(C)(=O)=O)cc1-c1nc(C(C)C)c(Br)c(=O)[nH]1 [Example 50, 5-Bromo-6-isopropyl-2-(2-n-propoxy-5-mesylamidophenyl)pyrimid-4(3H)-one] | 1.24 nM | – | 114 nM | 91.9 |
| CCCOc1ccc(NS(C)(=O)=O)cc1-c1nc(CC)c(CC)c(=O)[nH]1 [Example 51, 5,6-Diethyl-2-(2-n-propoxy-5-mesylamidophenyl)pyrimid-4(3H)-one] | 1.23 nM | 1.23 nM | 34.8 nM | 28.3 |
| CCCOc1ccc(NC(C)=O)cc1-c1nc(C(C)C)c(Br)c(=O)[nH]1 [Example 52, N-(3-(1,6-dihydro-4-isopropyl-5-bromo-6-oxopyrimidin-2-yl)-4-propoxyphenyl)acetamide] | 1.46 nM | 1.46 nM | 52.6 nM | 36.0 |
| CCCOc1ccc(NC(C)=O)cc1-c1nc(CC)c(CC)c(=O)[nH]1 [Example 53, N-(3-(1,6-dihydro-4,5-diethyl-6-oxopyrimidin-2-yl)-4-propoxyphenyl)acetamide] | 0.57 nM | 0.57 nM | 36.8 nM | 66.2 |
| CCCOc1ccc(NC(=O)CC)cc1-c1nc(CC)c(CC)c(=O)[nH]1 [Example 54, N-(3-(1,6-dihydro-4,5-diethyl-6-oxopyrimidin-2-yl)-4-propoxyphenyl)propionamide] | 1.21 nM | 1.21 nM | 13.2 nM | 10.9 |
| CCCOc1ccc(NC(=O)C2CCCCC2)cc1-c1nc(CC)c(CC)c(=O)[nH]1 [Example 55, N-(3-(1,6-dihydro-4,5-diethyl-6-oxopyrimidin-2-yl)-4-propoxyphenyl)cyclohexamide] | 0.92 nM | 0.93 nM | 20.1 nM | 21.8 |
| CCCOc1ccc(NC(=O)C2CC(O)CN2C(=O)OC(C)(C)C)cc1-c1nc(CC)c(CC)c(=O)[nH]1 (centres unmarked) [Example 57, N-(3-(1,6-dihydro-4,5-diethyl-6-oxopyrimidin-2-yl)-4-propoxyphenyl)-1-t-butyloxycarbonyl-4-hydroxyprolylamide] | 1.19 nM | 1.19 nM | 8.19 nM | 6.9 |
